Results published in patent publication US12194021B2, “Modified herbal compositions for neuromodulation” (University of Southern California, priority 2021, dated 2025).

How the values were obtained:
[1] = tested on: gephyrin; assay: Gephyrin level measurement (Western blot, hippocampus and cortex); assay type: in vivo; settings: TG-mice, 1 mg/kg oral daily
Procedure: 3) Gephyrin level measurement: Gephyrin amounts in control (group housing), AD, and AD+D-P group were determined. All mice brains were taken and prepared for assays. SDS-PAGE and Western blot analysis. Proteins were separated on SDS-polyacrylamide gels (Sigma) using the Bio-Rad Mini-Protean 3 cell system. Proteins were transferred on a polyvinylidene difluoride (PDVF) membrane (Sigma) and blocked with 4% non-fat dry milk. Blots were incubated overnight at 4° C. with rabbit anti-gephyrin (Santa Cruz, 1:200) and mouse anti-β-actin (Sigma, 1:1000), followed by HRP-conjugated secondary antibodies (1:5000) for two hours at room temperature. Bands were detected using ECL detection kit (Sigma) and exposed to X-ray films. Bands were analyzed by densitometry using ImageQuant5.2 (Molecular Dynamics), normalized to the corresponding β-actin signal and compared.
Gephyrin is the key scaffolding protein that organizes the inhibitory postsynaptic receptor density involving GABAAR clustering at postsynaptic sites. Gephyrin not only has a structural function at GABAergic synaptic sites, but also plays a crucial role in synaptic dynamics. Therefore, we examined the protein levels of gephyrin in the hippocampus (left) and cortex (right) in the TG-mice and in D-P treated TG-mice compared to wt control. […]

[2] = tested on: TG-mice; assay: Novel Object Recognition (NOR); assay type: in vivo; settings: 1 mg/kg oral in 2% sucrose, 3 months, untreated TG 51.2±3.6%, wt 68.9±6.8%
Procedure: 4) Memory Test Protocol. Novel Object Recognition (NOR): Day 1-3: Habituation (once/day). Top open containers (open field) were used with video camera to record animal behavior. An animal was put into a container with no objects for 5 min. Context remained the same for each animal.
Day 4, Familiarization: Two identical objects (toys-FO: familiar object) were put into the container at specific positions. Then animals were put into the container to explore the objects for 5 min. Retention Trial 1.5 h: Each animal was placed in its home cage for 1.5 h after the familiarization. One of the toys was replaced with a new toy (NO, novel object and very different from FO). […]
Day 5, Retention Trial 24 h: We placed another new toy (NO) along with an original object (FO) in the container. […] We scored the animal behavior offline according to how long the animal spent exploring each object. The Object Recognition Index (ORI) was calculated, such that ORI=(tn−tf)/(tn+tf), where tf and tn represent times of exploring the familiar and novel objects, respectively.
Mice were divided into four groups: (1) C57BL/6 wt male mice were treated with oral administration of 2% sucrose; (2) C57B1/6 wt male mice with oral administration of 1 mg/kg D-P in 2% sucrose; (3) TG-mice with oral administration of 2% sucrose; and (4) TG-mice with 1 mg/kg D-P in 2% sucrose. […] Next, we evaluated NCR (FIG. 3C). The RI was calculated.

Substance: piperidin-1-ium (2R,3R)-2-(3,4-dihydroxy-5-oxidophenyl)-3,5-dihydroxy-4-oxochroman-7-olate [D-P]
- gephyrin levels ([1]; 1 month): partly recovered
- gephyrin levels ([1]; 3 months): restored to control levels
- Object Recognition Index (ORI) [2]: 70.1±6.8%
